In publication PMC12439141, “Self-Assembling Hydrogels of Naproxen-Conjugated Peptides for Osteoarthritis Treatment” (Theranostics, 2025):

Assays:
C28/I2 chondrocytes = experiment: Chondrocyte proliferation (Calcein-AM staining and MTT quantification); format: cell-based, human; conditions: C28/I2 chondrocytes, 1, 2 and 3 days, compared to non-treated control
[1] = ABTS+ free radical scavenging test; conditions: PBS (pH 7.2), 400 µM, 30 mins, 25 °C, absorbance 734 nm, n = 3
Protocol: (§1) DPPH free radical scavenging test
(§2) DPPH (2, 2-Diphenyl -1-[…]) radical solution (0.58 mg/mL) was prepared by dissolving DPPH radical in anhydrous ethanol. Briefly, 6mg of […]
(§3) solution which were then incubated in dark for 2 h at 25°C. The absorbance of the mixed solution at 517 nm was measured using an enzyme-labeled instrument. The scavenging ability was calculated as DPPH free radical scavenging rate (%) = [(A0-A1)/A0] × 100%, where A0 is the absorbance of DPPH free radical solution, A1 is the absorbance of sample group. The experiment was repeated three times for each sample.
(§4) ABTS·+ free radical scavenging test […]
(§5) free radical solution, and then incubated at 25 °C for 30 mins in dark. The absorbance at 734 nm was measured using an enzyme-labeled instrument.
(§6) ABTS+ free radical scavenging activity is calculated according to the following formula: ABTS+ free radical scavenging rate (%) = [(A0-A1)/A0] × 100%, where A0 is the absorbance of ABTS+ free radical solution, and A1 is the absorbance of sample group. […]
(§7) Figure S14. Quantitative analysis of immunofluorescent staining of macrophages in Figure 5A and 5B. […]
(§8) Figure S16. Quantitative analysis of ROS fluorescent intensities (A) in Figure 5D, and fluorescent ratio of JC-1 in aggregate to monomer (B) in Figure 5E. […]

[2] = TEM imaging of assemblies; format: physicochemical; conditions: TEM images
Protocol: (C) FTIR spectra of NpxFFR (light green), NpxFFK (orange), NpxFFH (dark green), NpxFFE (purple) and Npx (medium spring green). (D) Hydrogel formation of Npx-peptide conjugates at 20 mg/mL concentration in ddH2O. […] (F) Zeta potential measurements of 400 µM Npx-peptide conjugates at pH:7.2. (G) TEM images of Npx and Npx-peptide conjugates. Scale bars represent 200 nm.

[3] = system: LPS-stimulated RAW264.7 cells; experiment: ELISA quantification of PGE2; format: cell-based, mouse; conditions: 400 µM, 6 h, 12 h, n = 3
Description: Figure 4 COX-2 inhibition of NpxFFK. (A) molecular docking of COX-2 (PDB ID: 6COX) with NpxFFK. (B) Binding of NpxFFK with amino acid residues in the active pocket of COX-2. (C) Schematic representation of the anti-inflammatory mechanism of Npx and the peptide NpxFFK. […] Scale bars represent 200 µm. […] The blank groups in panel D-G referred to the RAW264.7 cells without stimulation of LPS.

[4] = system: LPS-stimulated RAW264.7 cells; experiment: COX-2 and pro-inflammatory factor expression (qRT-PCR, immunofluorescence); format: cell-based, mouse; conditions: RAW264.7, 1 µg/mL LPS, 400 µM; 6 h, 12 h (PCR), 12 h or 24 h (immunofluorescence)
Protocol: After treatment, cells were harvested and total RNA was extracted using a total RNA purification kit (SparkJade, China), and cDNA was obtained from total RNA by a reverse transcription kit (SparkJade). Finally, qRT-PCR was performed using SYBR Green qPCR premix (SparkJade) on QuantGene 9600 real-time PCR (Bioer, Hangzhou, China). 2 Calculation of Relative Gene Expression-ΔΔCT method was used, and GAPDH was used as an internal reference gene.
Immunofluorescence staining was performed following a general procedure. After treatment, cells were fixed with 4% paraformaldehyde for 20 min, and permeabilized in 0.5% Triton X-100 for 5 min. 10% goat serum was used to block non-specific binding. Cells were then incubated with primary antibodies overnight. Then cells were incubated with fluorescently labeled secondary antibody for 1 h. […] For assessing RAW264.7 macrophage polarization, permeabilization procedure is not needed; anti-CD86 and anti-CD163 primary antibodies were used for identifying M1 macrophage or M2 macrophage, respectively. Primary antibodies included: anti-CD86 (1:300), anti-CD163 (1:300), anti-COX2 (1:300) and anti-COL2 (1:300). Cy3 or FITC labeled secondary antibodies were used for fluorescent imaging.

[5] = Zeta potential measurements; format: physicochemical; conditions: 400 µM; pH:7.2 (Figure 2F legend), text says physiological pH 7.4
Description: Scale bars represent 200 nm.
Under physiological conditions, glutamic acid carries a negative charge, while histidine, lysine, and arginine carry positive charges.

[6] = DPPH free radical scavenging test; conditions: PBS (pH 7.2), 400 µM, 2 h, 25 °C, absorbance 517 nm, n = 3
Protocol: as §1, §2, §3, §4, §5, §6, §7, §8

OA rat model [7] = experiment: Immunofluorescence and immunohistochemistry of joint sections in OA rats; format: in vivo, SD rats; conditions: 100 mg/kg IA, 4 weeks
Protocol: The knee joints were fixed in 4% paraformaldehyde, decalcified for 4 weeks, and embedded in paraffin for histological evaluation. Subsequently, the samples were sectioned and stained with hematoxylin and eosin (H&E) as well as […]/Fast Green. An enhanced Mankin scoring system was used to assess the pathologic status of the knee joint. Sections were incubated overnight at 4 °C with primary antibodies and further stained with a fluorescently labeled secondary antibody or 3,3'-diaminobenzidine (DAB)-tagged secondary antibody for immunohistochemical analysis.

OA rat model [8] = experiment: Footprint gait analysis in MIA-induced OA rats; format: in vivo, SD rats; conditions: IA injection, 100 mg/kg, 2 weeks
Protocol: The OA model was induced by local injection of 50 µL/1mg sodium iodoacetate (MIA) into the joint cavity of each rat. Rats injected with saline were treated as the sham group (n = 6). […] Each group contained 6 rats. 50 µL drugs were injected locally at day 0 and day 14, respectively. After 14 days of treatment, the rats were examined by indentation-collecting gait analysis, after which the rats were euthanized with isoflurane, and the knee joints were sampled for gross morphological observation. After 28 days of treatment, sampling was performed for micro-CT analysis, histological staining and immunohistochemistry.
The cardboard is laid flat on the floor. Both forelimbs of the rats were covered with blue ink and both hind legs with red ink, ensuring that the movements of the animals were as clear as possible. The sides of the runway consisted of cardboard, and the width was rationalized according to the weight and size of the rat. The room environment was kept quiet and the rats were placed on one side of the runway and allowed to pass freely. Before the start of the experiment, the rats were given two consecutive days of behavioral acclimatization training.

Q: With `COc1ccc2cc([C@H](C)C(=O)O)ccc2c1` [Npx, naproxen] as the compound, how does the “Effect on chondrocyte proliferation” value (C28/I2 chondrocytes) read?
A: the proliferation decreased over time

Q: What about the “ABTS+ radical scavenging activity” value [1] of the same compound?
A: neglectable radical scavenge activity

Q: And the “Morphology of assemblies (TEM)” value [2]?
A: uneven aggregates

Q: And the PGE2 production [3]?
A: reduced PGE2 production

Q: And the “COX-2 expression at gene level and protein level” value [4]?
A: downregulated COX-2 expression

Q: What about the “Zeta Potential” value [5] of the same compound?
A: -20.3 mV

Q: What about the “DPPH radical scavenging activity” value [6] of the same compound?
A: neglectable radical scavenge activity

Q: What about the “Expression of COX-2, TNF-α and IL-1β in joint sections” value (OA rat model [7]) of the same compound?
A: significantly reduced the expression of COX-2

Q: And the Stride length (OA rat model [8]; sham 12.83 cm, saline 7.57 cm)?
A: 9.42 cm

Q: What about the Hindpaw contact area (OA rat model [8]; versus sham and saline) of the same compound?
A: partial improvement
